In patent publication US20050175535A1 (CV Therapeutics, Inc., priority 2000, published 2005):

Legend:
[1] = test system: rat isolated perfused heart; experiment: Reversal time of coronary vasodilation in rat isolated perfused hearts; settings: bolus;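 as to t0.5, time to 50% reversal of the increase in coronary conductance: each agonist bolused at its minimal concentration giving equal maximal coronary conductance rise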;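 as to t0.9, time to 90% reversal of the increase in coronary conductance: each agonist bolused at its minimal concentration giving equal maximal coronary conductance rise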
[2] = Coronary and peripheral artery blood flow velocity, HR and MAP in anesthetized closed-chest dogs; format: in vivo; design: APV: unit not given here; settings: for APV / MAP / HR: Ado (200 or 300 ug/kg); for Coronary, maximal folds increase in average peak velocity (APVmax/APVbaseline) / Peripheral, maximal folds increase in average peak velocity (APVmax/APVbaseline): iv injection of CVT-3146 (1 μg/kg) and adenosine (200 or 300 μg/kg)
Method: Mongrel dogs (either sex, 17-21 kg; n=6) were obtained from a local vendor (Barton, Oxford, N.J.). Blood flow velocity in the coronary and cranial circumflex arteries was measured using Doppler transducer-tipped guide wires 0.014″ in diameter (FloWire®, model 1400J) purchased from Cardiometrics, Inc., Mountain View, Calif. For the positioning of the FloWire, a Judkins left coronary guiding catheter (JL3.5, 8F; Cordis) was used. Vascular arterial angiography was performed using Hypaque-76 contrast fluid (Bracco Diagnostics, Inc., Princeton, N.J.; Lot #9H28899) and a mobile fluoroscopic unit (Philips, BV 29). Systemic arterial blood pressure was measured using an electronic transducer-tipped catheter (Millar).
Following the administration of heparin (20 U/kg+100 U/hr), the pressure transducer-tipped catheter was introduced through the left femoral artery and positioned in the descending aorta. The Doppler FloWire was introduced through the right femoral artery. A peripheral vein was cannulated for the administration of all drugs. […] The sequence of positioning of the Doppler catheter was reversed in consecutive experiments. […] All parameters were allowed to recover (>30 min) to their respective baseline values between two consecutive drug administrations. […] The effect of adenosine on both coronary and peripheral artery APV was studied in five of the six dogs.
The following parameters were monitored and recorded: Average peak coronary and peripheral artery blood flow velocity (APV), mean arterial blood pressure (MAP) (mmHg), and sinus cycle length (SCL; msec). Differences in measure parameters were tested for statistical significance using ANOVA and Student's t test corrected for multiple measurements. Data are expressed as the mean±SEM.

[3] = CVT-3146 1 μg/kg, adenosine 200 or 300 μg/kg iv bolus, anesthetized dogs
[4] = anesthetized dogs, listed as adenosine

Nc1ncnc2c1ncn2[C@@H]1O[C@H](CO)[C@@H](O)[C@H]1O [Adenosine, adenosine, reference compound]
duration of the effect on coronary conductance (rank among agonists) ([1]; isolated rat hearts, FIG. 10): shortest | t0.5, time to 50% reversal of the increase in coronary conductance ([1]; rat isolated perfused heart): 1.6 ± 0.1 min | t0.9, time to 90% reversal of the increase in coronary conductance ([1]; rat isolated perfused heart): 5.6 ± 0.8 min | APV ([2]; Coronary, time 1′, Baseline 42 ± 5): 39 ± 8 | MAP ([2]; Coronary, time 1′, Baseline […] ± 6): 113 ± 6 mmHg | HR ([2]; Coronary, time 1′, Baseline 170 ± 10): 175 ± 5 | APV ([2]; Coronary, time 1.5′, Baseline 42 ± 5): 55 ± 8 | MAP ([2]; Coronary, time 1.5′, Baseline […] ± 6): 117 ± 6 mmHg | HR ([2]; Coronary, time 1.5′, Baseline 170 ± 10): 171 ± 5 | APV ([2]; Coronary, time 2′, Baseline 42 ± 5): 52 ± 7 | MAP ([2]; Coronary, time 2′, Baseline […] ± 6): 120 ± 6 mmHg | HR ([2]; Coronary, time 2′, Baseline 170 ± 10): 170 ± 5 | APV ([2]; Coronary, time 3′, Baseline 42 ± 5): 49 ± 6 | MAP ([2]; Coronary, time 3′, Baseline […] ± 6): 125 ± 6 mmHg | HR ([2]; Coronary, time 3′, Baseline 170 ± 10): 168 ± 8 | APV ([2]; Coronary, time 4′, Baseline 42 ± 5): 47 ± 6 | MAP ([2]; Coronary, time 4′, Baseline […] ± 6): 126 ± 6 mmHg | HR ([2]; Coronary, time 4′, Baseline 170 ± 10): 164 ± 10 | APV ([2]; Coronary, time 5′, Baseline 42 ± 5): 47 ± 6 | MAP ([2]; Coronary, time 5′, Baseline […] ± 6): 128 ± 6 mmHg | HR ([2]; Coronary, time 5′, Baseline 170 ± 10): 163 ± 10 | APV ([2]; Coronary, time 10″, Baseline 42 ± 5): 90 ± 10 | MAP ([2]; Coronary, time 10″, Baseline […] ± 6): 126 ± 8 mmHg | HR ([2]; Coronary, time 10″, Baseline 170 ± 10): 174 ± 7 | APV ([2]; Coronary, time 20″, Baseline 42 ± 5): 85 ± 10 | MAP ([2]; Coronary, time 20″, Baseline […] ± 6): 90 ± 9 mmHg | HR ([2]; Coronary, time 20″, Baseline 170 ± 10): 166 ± 11 | APV ([2]; Coronary, time 30″, Baseline 42 ± 5): 75 ± 9 | MAP ([2]; Coronary, time 30″, Baseline […] ± 6): 107 ± 9 mmHg | HR ([2]; Coronary, time 30″, Baseline 170 ± 10): 173 ± 6 | APV ([2]; Peripheral, time 1′, Baseline 33 ± 3): 44 ± 7 | MAP ([2]; Peripheral, time 1′, Baseline 118 ± 8): 105 ± 6 mmHg | HR ([2]; Peripheral, time 1′, Baseline 165 ± 10): 171 ± 6 | APV ([2]; Peripheral, time 1.5′, Baseline 33 ± 3): 38 ± 4 | MAP ([2]; Peripheral, time 1.5′, Baseline 118 ± 8): 106 ± 7 mmHg | HR ([2]; Peripheral, time 1.5′, Baseline 165 ± 10): 171 ± 6 | APV ([2]; Peripheral, time 2′, Baseline 33 ± 3): 35 ± 3 | MAP ([2]; Peripheral, time 2′, Baseline 118 ± 8): 110 ± 6 mmHg | HR ([2]; Peripheral, time 2′, Baseline 165 ± 10): 169 ± 6 | APV ([2]; Peripheral, time 3′, Baseline 33 ± 3): 33 ± 3 | MAP ([2]; Peripheral, time 3′, Baseline 118 ± 8): 115 ± 7 mmHg | HR ([2]; Peripheral, time 3′, Baseline 165 ± 10): 165 ± 9 | APV ([2]; Peripheral, time 4′, Baseline 33 ± 3): 31 ± 3 | MAP ([2]; Peripheral, time 4′, Baseline 118 ± 8): 119 ± 8 mmHg | HR ([2]; Peripheral, time 4′, Baseline 165 ± 10): 160 ± 9 | APV ([2]; Peripheral, time 5′, Baseline 33 ± 3): 30 ± 2 | MAP ([2]; Peripheral, time 5′, Baseline 118 ± 8): 121 ± 7 mmHg | HR ([2]; Peripheral, time 5′, Baseline 165 ± 10): 158 ± 10 | APV ([2]; Peripheral, time 10″, Baseline 33 ± 3): 62 ± 9 | MAP ([2]; Peripheral, time 10″, Baseline 118 ± 8): 107 ± 9 mmHg | HR ([2]; Peripheral, time 10″, Baseline 165 ± 10): 171 ± 6 | APV ([2]; Peripheral, time 20″, Baseline 33 ± 3): 76 ± 10 | MAP ([2]; Peripheral, time 20″, Baseline 118 ± 8): 85 ± 9 mmHg | HR ([2]; Peripheral, time 20″, Baseline 165 ± 10): 162 ± 15 | APV ([2]; Peripheral, time 30″, Baseline 33 ± 3): 59 ± 11 | MAP ([2]; Peripheral, time 30″, Baseline 118 ± 8): 87 ± 9 mmHg | HR ([2]; Peripheral, time 30″, Baseline 165 ± 10): 168 ± 9 | duration of >2-fold increase in coronary APV [2, 3]: < 20 s | time for all parameters to return to baseline post injection [2, 3]: ≤ 10 min | Coronary, maximal folds increase in average peak velocity (APVmax/APVbaseline) ([2]; anesthetized dogs): 2.5 ± 0.3 fold | Peripheral, maximal folds increase in average peak velocity (APVmax/APVbaseline) ([2]; anesthetized dogs): 2.0 ± 0.4 fold | Coronary, maximal folds increase in average peak velocity (APVmax/APVbaseline) [2, 4]: 2.5±0.3 fold | Peripheral, maximal folds increase in average peak velocity (APVmax/APVbaseline) [2, 4]: 2.0±0.4 fold
